The record followed here is patent publication US6204220A, “Substituted 2-oxo-3-alkynoic acids and methods of use thereof” (Rutgers, The State University of New Jersey, priority 1999, dated 2001).

Each structure is given as a SMILES string. Where two headings read alike, the source gives them in different places.

In test [1] the target is T1, PDHc (Escherichia coli, UniProt P0AFG8). As to the kind of experiment: Inactivation of 1-lip and 3-lip PDH complexes by 2-oxo-3-alkynoic acids (overall NADH assay). It is filed as biochemical, E. coli. Also on record: made in house; host or cells: E. coli JRG1342 (PDHc null) with Ptac plasmid pGS501 (1-lip) or pGS523 (3-lip). The conditions noted are these: for protection of PDHc from inactivation by pyruvate: 5 mM pyruvate, 1 mM ThDP, 5 mM MgCl2; for protection of PDHc from inactivation by pyruvate / inactivation of PDHc in the absence of ThDP: 3-lip (heptynoic) or 1-lip (butynoic) PDHc; for kapp, slow phase of inactivation / At (residual activity): 1-lip PDHc. The text has this: Bacterial strains and plasmids for PDHc. Derivatives of the PDHc null strain, E. coli JRG1342 contained Ptac expression plasmids encoding PDHc with E2 chains bearing three lipoyl domains (3-lip PDHc; pGS523, the wild type parental complex), or a single lipoyl domain in each E2 subunit (1-lip PDHc; pGS501), and variant 1-lip PDH complexes with mutations in the E1 gene leading to C259S (pGS457) and C259N (pGS596) substitutions (Machado et al., 1992; Machado, 1993).
Purification of PDHc. Cultures for purification of 1-lip and 3-lip PDH complexes were grown at 37° C. in LB medium containing glucose (0.2%) and ampicillin (50 μg/mL). The PDH complexes were induced by adding IPTG to 60 μM as described by Russell et al. (1992). Cells were disrupted by ultrasonic treatment after preincubation with lysozyme (0.6 mg/mL final concentration) for 15 min. The PDHc was sedimented by ultracentrifugation (100,000×g for 3 h) and further purified by chromatography on a
Sephacryl S-400 HR column. Fractions containing PDHc were pooled and treated with ammonium sulfate to 70% saturation. The enzyme was dissolved in buffer A (20 mM potassium phosphate, pH 7.8, 2 mM Na2 EDTA, 1 mM PMSF, and 1 mM benzamidine.HCl) then dialyzed against the same buffer. The PDH complexes were stored in buffer A at -20° C.
(§1) Activity and related measurements on PDHc. The overall enzymatic reaction of the PDH complex was assayed using a Varian DMS 300 spectrophotometer or the Cobas Bio (Roche Diagnostics, Somerville, N.J.) automated centrifugal analyzer, monitoring the pyruvate-dependent reduction of NAD^+ at 340 nm. The reaction medium contained in 1 mL (DMS 300) or 0.25 mL (Cobas-Bio) test volume: 0.1 M Tris-HCl, pH 8.0; 1 mM MgCl2; 2 mM sodium pyruvate; 2.5 mM NAD^+; 0.052-0.2 mM coenzyme A; 0.2 mM ThDP; and 2.6 mM DTT at 27° C. The reaction was initiated either by adding enzyme to a mixture of all other components, or by adding CoA.
One unit of activity is defined as the amount of NADH produced (μmol) per min per mg protein. The activity of resolved E1 was measured after reconstitution with excess E2-E3 subcomplex using the NADH assay for PDHc activity.
Inactivation of 1-lip and 3-lip PDH complexes and resolved E1 component by 2-oxo-3-alkynoic acids. Intact 1-lip or 3-lip PDH complexes (0.050-0.1 mg) or resolved E1 component (0.05-0.09 mg) were incubated in the dark with 5 mM MgCl2, […] of 2-oxo-3-alkynoic acids in 20 mM KH2 PO4 buffer, pH 7.5 at room temperature in a total volume 0.5 mL. The initial activity (100%) was assayed prior to the addition of 2-oxo-3-alkynoic acids. Samples (50 μL) were withdrawn periodically and diluted into 1 mL of assay solution, containing all components necessary for assay of the overall activity. The activity of untreated enzyme was stable during the time of inactivation.

In test [2] the target is T1, PDHc. As to the kind of experiment: Steady-state kinetics of PDHc, Km / [S]0.5 for pyruvate. The conditions noted are these: 3-lip PDHc; 0.22 mM without reagent. Further details: made in house; host or cells: E. coli JRG1342 (PDHc null), Ptac plasmid pGS523. The format is biochemical. The method, then: as §1
The Michaelis-Menten constants (Km) for native PDHc and PDHc treated with 2-oxo-3-butynoic acid and 2-oxo-3-heptynoic acid were obtained by fitting steady-state rates at different pyruvate concentrations to the Hill equation and the logarithmic form of the Hill equation using the Delta Graph (Pro4) computer program.

Test [3] concerns the target T2, Pyruvate oxidase from Lactobacillus plantarum (Lactiplantibacillus plantarum, UniProt P37063).
T2 construct: purchased Boehringer Mannheim (a gift, not bought)
T2 sequence (P37063 1-603): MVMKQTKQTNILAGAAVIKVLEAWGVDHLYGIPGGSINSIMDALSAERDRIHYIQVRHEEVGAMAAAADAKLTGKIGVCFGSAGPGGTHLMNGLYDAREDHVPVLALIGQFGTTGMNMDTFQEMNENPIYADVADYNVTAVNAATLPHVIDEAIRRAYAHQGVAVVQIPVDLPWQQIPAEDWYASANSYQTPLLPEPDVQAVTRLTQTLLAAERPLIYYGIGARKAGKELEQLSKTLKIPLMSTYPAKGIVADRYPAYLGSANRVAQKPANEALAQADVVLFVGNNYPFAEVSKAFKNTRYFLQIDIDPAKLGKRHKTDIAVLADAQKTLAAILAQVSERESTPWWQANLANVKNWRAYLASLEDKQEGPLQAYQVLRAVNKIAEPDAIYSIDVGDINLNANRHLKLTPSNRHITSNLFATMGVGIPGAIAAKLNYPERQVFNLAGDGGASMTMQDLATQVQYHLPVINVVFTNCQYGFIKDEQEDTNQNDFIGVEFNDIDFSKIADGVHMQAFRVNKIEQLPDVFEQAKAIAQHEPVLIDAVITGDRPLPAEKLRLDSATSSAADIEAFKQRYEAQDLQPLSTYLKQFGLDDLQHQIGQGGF
As to the kind of experiment: Inactivation of pyruvate oxidase (POX). The conditions noted are these: for kinact/KI: read-out: kc/Ki,c (converted). The format is biochemical. Here is the method:
Pyruvate oxidase from Lactobacillus plantarum was a gift from Boehringer Mannheim and was assayed according to the manufacturer's instructions at 25° C. by measuring the rate of 4-quinonimine production from H2 O2, 3,5-dichlorophenolsulfonic acid and 4-aminoantipyrine in the presence of horseradish peroxidase, at 546 nm, using a Cobas-Bio (Roche Diagnostics, Somerville, N.J.) automated centrifugal analyzer. The assay reaction mixture (total vol. 0.25 mL) contained: 40 mM sodium pyruvate; 50 mM potassium phosphate buffer, pH 6.5 with 10% (v/v) glycerol; 6.8 mM 3,5-dichlorophenolsulfonic acid; 0.03% of 4-aminoantipyrine; and 5u/mL of horseradish peroxidase. The reaction was initiated by adding POX.

Take `CCCC#CC(=O)C(=O)O` [2-oxo-3-heptynoic acid, 2-Oxo-3-heptynoic acid]: in test [1], the Ki was 2850 µM; the “protection of PDHc from inactivation by pyruvate” value was “failed to protect”; the “inactivation of PDHc in the absence of ThDP” value is “still inactivated to the same extent, but at a slower rate”. Besides, the “protection from inactivation by DTT” value in test [1] (3-lip PDHc, 5 mM DTT) was “partial protection”. In test [1] (pH 7.5, read-out: ki/Ki PDHc), the kinact/KI was 2.83 M⁻¹ s⁻¹. For the same compound, in test [1] (prolonged incubation), the “reactivation of inactivated 3-lip PDHc by hydroxylamine” value is listed as “failure to reactivate”. Also, in test [2], the “[S]0.5 for pyruvate in the presence of / after treatment with inhibitor” value stood at 0.234 ± 0.025 mM. Moreover, the “inhibition / inactivation of POX (in words)” value in test [3] was “inhibit”. Besides, in test [3] (POX), the saturation by inhibitor result was “no”. The kinact/KI in test [3] (POX, from linear portion at high inhibitor concentrations (d)) is 0.32 M⁻¹ s⁻¹. Besides, in test [3] (POX, from linear portion at low inhibitor concentrations (c)), the kinact/KI was 0.0615 M⁻¹ s⁻¹.

As to `C#CC(=O)C(=O)O` [2-oxo-3-butynoic acid, 2-Oxo-3-butynoic acid], the Ki turned out to be 7.9 µM in test [1]; 7.9 µM in test [1] (read-out: Ki PDHc, PDHc (1-lip PDHc)); 951 µM in test [3] (POX, read-out: Ki,c). The “inhibition / inactivation of PDHc (in words)” value in test [1] is given as “irreversibly inactivates”. Also, in test [1] (0.11 mM inhibitor), the “k for inactivation of PDHc” value was found to be 0.69 min⁻¹. Moreover, in test [1], the “protection of PDHc from inactivation by pyruvate” value is on record as “partially protected”. The entries for the “kapp, slow phase of inactivation” value in test [1] (0.1 mM inhibitor), in test [1] (0.5 mM inhibitor) and in test [1] (1.0 mM inhibitor) were 0.062 min⁻¹, 0.053 min⁻¹ and 0.056 min⁻¹, respectively. The “At (residual activity)” value in test [1] (absence of pyruvate) turned out to be 20%; in test [1] (presence of 5 mM pyruvate) it was 60%. The “inactivation of PDHc in the absence of ThDP” value in test [1] is “partial inactivation”. The extent of inactivation in test [1] (3-lip PDHc) is given as 99.62%. Besides, in test [1] (3-lip PDHc, 20-fold dilution, 50 min incubation in overall reaction mixture), the “restoration of activity after dilution” value is “no restoration of activity”. In addition, the “PDHc activity at new plateau, of original activity” value in test [1] (after a fresh portion of inhibitor was added) is recorded as 6-8%. Further, in test [1] (first portion of inhibitor, residual activity), the “PDHc activity at plateau” value is on record as “about 30%”. For the same compound, the kinact/KI in test [1] (pH 7.5, second-order rate constant for inactivation, read-out: ki/Ki PDHc (converted)) was 1730 M⁻¹ s⁻¹; in test [3] (POX), 4.7 M⁻¹ s⁻¹. For the same compound, the “[S]0.5 for pyruvate in the presence of / after treatment with inhibitor” value in test [2] was found to be 0.262 ± 0.069 mM. Moreover, in test [3], the “inhibition / inactivation of POX (in words)” value is “irreversibly inactivates”. Besides, the saturation by inhibitor entry in test [3] (POX) is on record as “yes”. Moreover, the kinact in test [3] (POX, read-out: ki (converted)) was 0.00447 s⁻¹.
